# According to patent EP0819689A1, “5-substituted (2H) chromenes” (Byk Gulden Lomberg Chemische Fabrik GmbH, priority 1996, dated 1998):
# Tested on: PDE IV
# Assay: Inhibition of PDE IV activity (method of Bauer and Schwabe, adapted to microtitre plates)
# Type: biochemical
# Conditions: Hemmung der PDE IV-Aktivität
# Text: Der Aktivitätstest wurde nach der Methode von Bauer und Schwabe durchgeführt, die auf Mikrotiterplatten adaptiert wurde (Naunyn-Schmiedeberg's Arch. Pharmacol. 1980, 311, 193-198). Hierbei erfolgt im ersten Schritt die PDE-Reaktion. In einem zweiten Schritt wird das entstandene 5'-Nukleotid durch eine 5'-Nukleotidase des Schlangengiftes von ophiophagus hannah (King Cobra) zum ungeladenen Nukleosid gespalten. Im dritten Schritt wird das Nukleosid auf Ionenaustauschsäulen vom verbliebenen geladenen Substrat getrennt. Die Säulen werden mit 2 ml 30 mM Ammoniumformiat (pH 6,0) direkt in Minivials eluiert, in die noch 2 ml Szintillatorflüssigkeit zur Zählung gegeben wird.
# Die für die erfindungsgemäßen Verbindungen ermittelten Hemmwerte ergeben sich aus der folgenden Tabelle A, in der die Nummern der Verbindungen den Nummern der Beispiele entsprechen. Tabelle A
row,SMILES,PDE 4 -logIC50
1,"COc1ccc(CCc2ccncc2)c2c1OC1(CCCC1)CC2 [Verbindung 3, Spiro{5-[2-(pyrid-4-yl)ethyl]-8-methoxychroman-2.1'-Cyclopentan}]","7,59"
2,"COc1ccc(CC(C#N)c2ccncc2)c2c1OC1(CCCC1)CC2 (racemic) [Verbindung 8, (±)-Spiro{5-[2-Cyano-2-(pyrid-4-yl)ethyl]-8-methoxychroman}]","6,95"
3,"COc1ccc(/C=C/c2ccncc2)c2c1OC1(C=C2)CCCC1 [Verbindung 2, (E)-Spiro{5-[2-(pyrid-4-yl)ethenyl]-8-methoxy-[2H]chromen-2,1'-Cyclopentan}]","7,10"
4,"COc1ccc(/C=C(\C#N)c2ccncc2)c2c1OC(C)(C)C=C2 [Verbindung 5, (Z)-5-[2-Cyano-2-(pyrid-4-yl)ethenyl]-8-methoxy-2,2-dimethyl-[2H]chromen]","6,73"
5,"COc1ccc(C(O)Cc2ccncc2)c2c1OC1(C=C2)CCCC1 (racemic) [Verbindung 1, (±)-Spiro{5-[1-Hydroxy-2-(pyrid-4-yl)ethyl]-8-methoxy-[2H]chromen-2,1'-Cyclopentan}]","5,88"
6,"COc1ccc(CC(C#N)c2ccccn2)c2c1OC(C)(C)CC2 (racemic) [Verbindung 10, (±)-5-[2-Cyano-2-(pyrid-2-yl)ethyl]-8-methoxy-2,2-dimethylchroman]","6,76"
7,"COc1ccc(/C=C(\C#N)c2ccccn2)c2c1OC(C)(C)C=C2 [Verbindung 7, (Z)-5-[2-Cyano-2-(pyrid-2-yl)ethenyl]-8-methoxy-2,2-dimethyl-[2H]chromen]","5,95"
8,"COc1ccc(/C=C(\C#N)c2cccnc2)c2c1OC(C)(C)C=C2 [Verbindung 6, (Z)-5-[2-Cyano-2-(pyrid-3-yl)ethenyl]-8-methoxy-2,2-dimethyl-[2H]chromen]","6,36"
9,"COc1ccc(/C=C(\C#N)c2ccncc2)c2c1OC1(C=C2)CCCC1 [Verbindung 4, (Z)-Spiro{5-[2-Cyano-2-(pyrid-4-yl)ethenyl]-8-methoxy-[2H]chromen-2.1'-Cyclopentan}]","6,12"
10,"COc1ccc(CC(C#N)c2ccncc2)c2c1OC(C)(C)CC2 (racemic) [Verbindung 9, (±)-5-[2-Cyano-2-(pyrid-4-yl)ethyl]-8-methoxy-2,2-dimethylchroman]","7,01"
